The subject of series [1] is Human umbilical vein endothelial cell. Nature of the series: In Vitro Angiogenesis Assay (morphogenesis / tube formation on Matrigel, ECMatrix kit). In kind it is cell-based. On the set-up: key to Results (In Vitro Angiogenesis Assay score): Individual cells, well separated (+++++); Cells begin to migrate and align themselves (++++); Cells begin to line but not sprouting (+++); Visible Sprouting (++); Closed polygons begins to form (+). As to conditions: for Results (In Vitro Angiogenesis Assay score): HUVECs on ECMatrix, 8 hours at 37° C., inhibitors 1 mM and 10 mM, higher score = greater inhibition of angiogenesis. As for the experimental part: Human umbilical vein endothelial cell was purchased from Cambrex Co. (East Rutherford, N.J.) and maintained in EGM (Endothelial Growth Medium) supplemented with 2% FBS, 0.1% EGF, 0.1% Hydrocortisone, 0.1% GA-1000 and 0.4% BBE.
The morphogenesis assay on Matrigel was performed according to the manufacturer's instructions (Chemicon International). The ECMatrix™ kit consists of laminin, collagen type IV, heparan sulfate, proteoglycans, entactin and nidogen. It also contains various growth factors (TGF-β, FGF) and proteolytic enzymes (plasminogen, tPA, MMPs) that are normally produced in EHS tumors. The incubation condition was optimized for maximal tube-formation as follows: 50 μl of EC Matrix™ was suitably diluted in the ratio 9:1 with 10× diluent buffer and used for coating the 96-well plate. The coated plates were incubated at 37° C. for 1 hr. to allow the Matrix solution to solidify. In the meantime the HUVECs that were cultured for 24 hours in EGM with 2% FBS was trypsinised and re-suspended in the growth media and the cells were counted. After 1 hr. pre-incubation of the plate with Matrix solution, the HUVECs were plated at 10^4 cells/well in the absence or in the presence of different VEGFR inhibitors (1 mM and 10 mM). After 8 hours incubation at 37° C., the cell three-dimensional organization (cellular network structures) was examined under an inverted photomicroscope. Each treatment was performed in triplicate.
Activated endothelial cells form cellular networks (mesh like structures) resembling capillary tubes sprouting into the stromal space. The formation of these cellular networks is a dynamic process, which started migration and alignment of cells followed by the development of capillary tubes like structures, sprouting of new branches and finally the formation of the cellular networks. Although this in vitro angiogenesis kit is designed only as a qualitative assay, we have made an attempt to quantitate the degree of angiogenesis using a scoring method. The scoring was based on the extent of the cellular networks that were observed as follows:
Individual cells, well separated (+++++)
Cells begin to migrate and align themselves (++++)
Cells begin to line but not sprouting (+++)
Closed polygons begins to form (+).
According to our qualitative assessment, the higher the scoring the greater the efficiency of the compound for inhibiting endothelial cell mediated angiogenesis.

Series [2] has as its system GI-101A. Briefly: Cytotoxicity towards breast carcinoma cell line GI-101A. In kind it is cell-based.
In series [3] the test system is VEGFR. Nature of the series: Assay of VEGF Receptor Tyrosine Kinase Activity (VEGFR immunoprecipitated from cell lysate, non-radioactive PTK ELISA kit). In kind it is biochemical. An excerpt:
Protein Tyrosine Kinases (PTKs) perform a critical role in signal transduction pathways that control cell proliferation, differentiation, metabolism, and apoptosis. Phosphorylation of proteins by PTKs is essential for the regulation of these biological mechanisms and defects in these pathways may result in a number of human diseases, including cancer. The important aspect of these enzymes in cellular regulation is accentuated by the fact that for a large number of kinases a corresponding viral oncogene product has been identified. […] CHEMICON's non-radioactive Tyrosine Kinase Activity Assay provides a simple, convenient and specific method for quantification and comparative determination of a wide range of PTKs. […]
The non-radioactive Tyrosine Kinase Activity Assay Kit consists of a synthetic Biotinylated Peptide Substrate, a Biotinylated Phosphopeptide, purified Phosphotyrosine specific monoclonal antibody conjugated to horseradish peroxidase (HRP) and other components required to perform 96 ELISA-based assays. […] The quantity of phosphate incorporated into the tyrosine kinase substrate is determined utilizing the phosphopeptide standard curve. […] The assay reaction would be terminated by the addition of 100 μl of stop solution and finally, the absorbance was measure on a standard microplate reader at 450 nm. […]

The test system of series [4] is MCF-7. Nature of the series: Cytotoxicity towards breast carcinoma cell line MCF-7. In kind it is cell-based.

This is an account of results in patent publication US7939557B2, “Vascular endothelial receptor specific inhibitors” (Nova Southeastern University, priority 2006, dated 2011).

Turning to `O=C(Nc1ccc2c(c1)C(=O)NC2=O)c1nc2ccccc2s1` [Example 1], the “Results (In Vitro Angiogenesis Assay score)” value (from here on “Results”) in series [1] was “++++”. With `N#Cc1ccc(C(=O)Nc2ccc3c(c2)C(=O)NC3=O)cc1` [Example 2], the “Results” value in series [1] is given as “+++”. Turning to `CC(=O)c1ccc(C(=O)Nc2ccc3c(c2)C(=O)NC3=O)cc1` [Example 3], the “Results” value in series [1] was “++”. Regarding `O=C(Nc1cccc2c1C(=O)NC2=O)c1ccc([N+](=O)[O-])o1` [Example 4], the “cytotoxicity towards GI-101A” value in series [2] is reported as “produced cytotoxicity”. For the same compound, in series [3] (VEGFR immunoprecipitated from cell lysate, PTK assay, read-out: IC50 for inhibiting VEGFR kinase), the IC50 stood at 400 nM. Also, the “inhibition of VEGFR associated tyrosine kinase activity (in words)” value in series [3] (level of inhibition increased with concentration) is “able to inhibit the VEGFR associated tyrosine kinase activity”. For the same compound, in series [1], the “Results” value is on record as “+++++”. The EC50 in series [1] (Homo sapiens, Endothelial cell, estimated, read-out: EC50 value for anti-antigenic effect) was 25 nM. For the same compound, the “cytotoxicity towards MCF-7” value in series [4] is “produced cytotoxicity”.

Turning to `O=C(Nc1cccc2c1C(=O)NC2=O)c1ccc(S(=O)(=O)N2CCCCC2)cc1` [Example 5], the “Results” value in series [1] is listed as “+++”. `O=C(Nc1cccc2c1C(=O)NC2=O)c1ccc(Cl)s1` [Example 6]: the “Results” value in series [1] was “+++”.
